Experimental data reported in patent US20260166045A1, “COMBINATION THERAPY COMPRISING GSPT1-DIRECTED MOLECULAR GLUE DEGRADERS AND PI3K/AKT/mTOR PATHWAY INHIBITORS” (Monte Rosa Therapeutics, Inc., priority 2022, published 2026).

Columns and labels:
MCF7 xenografts = test: MCF7 cell-derived xenograft (CDX) in vivo combination study; set-up: species or system BALB/c nude mice; settings: compound 1-1 10 mg/kg; for Δ TV ratio to vehicle group (A/C, B/C, (AB)/C): day 28, Clarke method; for Δ TV (delta tumor volume): p.o. qd for 28 days, average of four tumors
Method: […] (0.36 mg) pellets (Innovative Research of America Cat. No.: SE-121, pellet size: 3.0 mm) were implanted 2-3 days before cell inoculation.
(§1) Compound 1-1 was formulated every day freshly as a solution in 5% DMSO/95% (30% w/v HPβCD in water). This formulation was also used as vehicle control. Everolimus was formulated as a suspension in 1% MC (400 cps), which was prepared every 3 days.
(§2) Body weights were measured at the same time.
An approximation of drug interactions was made using the method described by Clarke (Clarke et al. 1997. Breast Cancer Res Treat. 46(2-3):255-78). This was applied to […] and can estimate interactions from limited data. In short, for compound A, B, or the combination AB (with control group C), antagonism is predicted when (AB)/C>(A/C)×(B/C), an additive effect is predicted when (AB)/C=(A/C)×(B/C), and synergistic interaction is predicted to occur when (AB)/C<(A/C)×(B/C). Calculations in Table 10B indicate that the interaction of everolimus and compound 1-1 in the MCF7 CDX model is synergistic.
17β-Estradiol (0.36 mg) pellets (Innovative Research of America Cat. No.: SE-121, pellet size: 3.0 mm) were implanted 2-3 days before cell inoculation.
(§3) Compound 1-1 was formulated every day freshly as a solution in 5% DMSO/95% (30% w/v HPβCD in water). This formulation was also used as vehicle control. Alpelisib was formulated as a solution in 20% captisol+80% water (pH adjusted to 4), which was prepared every week.

CAL51 xenografts = test: CAL51 cell-derived xenograft (CDX) in vivo combination study; set-up: species or system SCID Beige mice; settings: compound 1-1 3 mg/kg; for antitumor effect vs vehicle (tumor volume): day 21, ANOVA with post hoc Tukey's test; for antitumor effect vs vehicle (tumor volume) / Δ TV ratio to vehicle group (A/C, B/C, (AB)/C): p.o. qd; for Δ TV ratio to vehicle group (A/C, B/C, (AB)/C): day 21, Clarke method; for Δ TV (delta tumor volume): p.o. qd for 21 days, average of four tumors
Method: as §1, §2, §3

With `O=C1CCC(N2Cc3ccc(COC(=O)Nc4cc(OC(F)(F)F)ccc4F)cc3C2=O)C(=O)N1` (stereo not drawn) [Compound 1-1, [2-(2,6-dioxopiperidin-3-yl)-3-oxo-2,3-dihydro-1H-isoindol-5-yl]methyl N-[2-fluoro-5-(trifluoromethoxy)phenyl]carbamate] the “anti-tumor effect compared to vehicle” value (MCF7 xenografts; day 28, ANOVA with post hoc Tukey's test, alpelisib 50 mg/kg, p.o. qd) was “significant anti-tumor effect”, the “antitumor effect vs vehicle (tumor volume)” value (“antitumor effect vs vehicle” below) (MCF7 xenografts; day 28, ANOVA with post hoc Tukey's test, everolimus 2 mg/kg, p.o. qd) was “statistically significant antitumor effects” and the “Δ TV ratio to vehicle group (A/C, B/C, (AB)/C)” value (“Δ TV ratio to vehicle group” for short) (MCF7 xenografts; alpelisib 50 mg/kg, p.o. qd) was 0.35. For the same molecule, the “Δ TV ratio to vehicle group” value (MCF7 xenografts; everolimus 2 mg/kg, p.o. qd) was 0.35, the “Δ TV (delta tumor volume)” value (MCF7 xenografts; day 28, alpelisib 50 mg/kg, combination 50 + 10 mg/kg) was 216 mm^3 and the “Δ TV (delta tumor volume)” value (MCF7 xenografts; day 28, everolimus 2 mg/kg, combination 2 + 10 mg/kg) was 216 mm3. For the same molecule, the “antitumor effect vs vehicle” value (CAL51 xenografts; alpelisib 20 mg/kg) was “neither alpelisib nor compound 1-1 produced a statistically significant antitumor effect”, the “antitumor effect vs vehicle” value (CAL51 xenografts; everolimus 2 mg/kg) was “statistically significant antitumor effect” and the “Δ TV ratio to vehicle group” value (CAL51 xenografts; alpelisib 20 mg/kg) was 0.38. For the same molecule, the “Δ TV ratio to vehicle group” value (CAL51 xenografts; everolimus 2 mg/kg) was 0.38, the “Δ TV (delta tumor volume)” value (CAL51 xenografts; day 21, alpelisib 20 mg/kg, combination 20 + 3 mg/kg) was 215 mm3 and the “Δ TV (delta tumor volume)” value (CAL51 xenografts; day 21, everolimus 2 mg/kg, combination 2 + 3 mg/kg) was 215 mm3.
